Tests used:
[1] = molecular target: T1, transfected human CB1 and CB2 receptors: CB1-Receptor (Homo sapiens, UniProt P21554); assay: In-vitro determination of affinity to CB1 receptor (radioligand [^3H]-CP55940); assay type: binding
T1 construct: purchased Receptor Biology; Inc
Method: (§1) Brockie et al., "Agonist-inverse agonist characterization at CB1 and CB2 cannabinoid receptors of L-759633, L759656 and AM630", British Journal of Pharmacology, 126, 665-672, (1999), whereby the transfected human CB1 and CB2 receptors of Receptor Biology. Inc. are used. The radioligand used for both receptors is [^3H]-CP55940.
(§2) The affinity of the inventive substituted pyrazoline compounds to CB1/CB2 receptors was determined as described above.

[2] = molecular target: T2, transfected human CB1 and CB2 receptors: CB2-Receptor (Homo sapiens, UniProt P34972); assay: In-vitro determination of affinity to CB2 receptor (radioligand [^3H]-CP55940); assay type: binding
T2 construct: purchased Receptor Biology; Inc
T2 sequence (P34972 whole entry): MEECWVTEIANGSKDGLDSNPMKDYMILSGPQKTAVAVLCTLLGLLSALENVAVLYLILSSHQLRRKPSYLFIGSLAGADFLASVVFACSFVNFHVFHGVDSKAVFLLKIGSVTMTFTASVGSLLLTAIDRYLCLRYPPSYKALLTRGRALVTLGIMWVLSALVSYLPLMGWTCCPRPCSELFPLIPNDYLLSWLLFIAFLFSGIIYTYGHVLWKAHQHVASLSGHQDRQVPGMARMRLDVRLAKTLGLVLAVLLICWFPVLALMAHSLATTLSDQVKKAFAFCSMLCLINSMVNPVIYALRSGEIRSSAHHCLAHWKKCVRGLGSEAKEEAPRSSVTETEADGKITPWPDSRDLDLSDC
Method: as §1, §2

Male NMRI mice [3] = assay: Mouse tetrad model, agonistic effect; assay type: in vivo; conditions: 5 mg/kg i.v.
From the text: (§3) Substances with affinity for cannabinoid receptors are known to produce a wide range of pharmacological effects. It is also known that intravenous administration of a substance with affinity for cannabinoid receptors in mice produces analgesia , hypothermia, sedation and catalepsy. Individually, none of these effects can be considered as proof that a tested substance has affinity for cannabinoid-receptors, since all of these effects are common for various classes of centrally active aaents. However, substances, which show all of these effects, i.e. substances that are active in this so-called tetrad model are considered to have affinity for the cannabinoid receptors. It has further been shown that cannabinoid receptor antagonists are higly effective in blocking the effects of a cannabinoid agonist in the mouse tetrad model.
(§4) The tetrad model is described, for example, in the publication of A. C. Howlett et al, International Union of Pharmacology XXVII. Classification of Cannabinoid Receptors, Pharmacol Rev 54, 161-202 , 2002 and David R. Compton et al., "In-vivo Characterization of a Specific Cannabinoid Receptor Antagonist (SR141716A) :Inhibition of Tetrahydrocannbinol- induced Responses and Apparent Agonist Activity", J. Pharmacol. Exp. Ther. 277 , 2, 586-594, 1996. The corresponding parts of the description are hereby incorporated by reference. […]
(§5) Before testing in the behavioral procedures given below, mice are acclimatized to the experimental setting. Pre-Treatment control values are determined for analgesia hot plate latency (in seconds), rectal temperature, sedation and catalepsy.
In order to determine the agonistic activty of the substance to be tested, the mice are injected intravenously with the substance to be tested or the vehicle alone. 15 minutes after injection, latency in hot plate analgesia is measured. Rectal temperature, sedation and catalepsy are measured 20 minutes after injection.
(§6) The hot plate analgesia is determined according to the method described in Woolfe D. et al. "The evaluation of analgesic action of pethidine hydrochloride (Demerol)", J. Pharmacol. Exp. Ther. 80, 300-307,1944.
(§7) The mice are placed on a hot plate (Harvard Analgesimeter) at 55 ± 0.5 °C until they show a painful sensation by licking their paws or jumping and the time for these sensations to occur is recorded. This reading is considered the basal value (B). […]
(§8) Fifteen minuts after the administration of the substance to be tested, the mice are again placed on the hot plate and the afore described procedure is repeated. This period is called the post-treatment reading (PT).
(§9) The degree of analgesia is calculated from the formula: %MPEof Analgesia = (PT−B)/(PC−B) × 100 [formula] […]

Male NMRI mice [4] = assay: Mouse tetrad model, antagonistic effect against Win 55212-2; assay type: in vivo; conditions: 5 mg/kg i.v. prior to Win 55212-2 in a dose of 1,25mg/kg i.v.
From the text: as §3, §4, §5
In order to determine the antagonistic activity the identical procedure is used as for the determination of the agonistic effects, but with the difference that the substance to be evaluated for its antagonistic activity is injectected 5 minutes before the intravenous injection of 1.25 mg/kg Win-55,212 a known cannabinoid-receptor agonist.
as §6, §7, §8, §9

T1 sequence (P21554 whole entry): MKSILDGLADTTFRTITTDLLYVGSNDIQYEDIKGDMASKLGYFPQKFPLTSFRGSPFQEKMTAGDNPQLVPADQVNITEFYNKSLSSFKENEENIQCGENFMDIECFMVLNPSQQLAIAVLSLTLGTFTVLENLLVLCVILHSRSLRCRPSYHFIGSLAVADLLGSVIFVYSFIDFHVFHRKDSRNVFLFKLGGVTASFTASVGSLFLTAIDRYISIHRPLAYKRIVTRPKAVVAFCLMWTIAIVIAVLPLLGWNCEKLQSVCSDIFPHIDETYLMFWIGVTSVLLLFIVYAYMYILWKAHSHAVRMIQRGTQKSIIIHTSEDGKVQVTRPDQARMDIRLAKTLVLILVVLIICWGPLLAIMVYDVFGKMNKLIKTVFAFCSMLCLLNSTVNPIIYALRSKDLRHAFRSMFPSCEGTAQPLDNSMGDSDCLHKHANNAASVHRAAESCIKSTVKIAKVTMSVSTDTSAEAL

## O=C(NN1CCCCC1)C1=NN(c2ccc(Cl)cc2Cl)C(c2ccc(Cl)cc2)C1 (stereo not shown) [Example 1, N-piperidinyl-5-(4-chlorophenyl)-1-(2,4-dichlorophenyl)-4,5-dihydro-1H-pyrazole-3-carboxamide]
[1]
  Ki: < 25 nM
[2]
  Ki: > 1000 nM
Male NMRI mice [3]; 15 minutes after injection
  Agonistic effect A: Hot-Plate test: 0
Male NMRI mice [3]; 20 minutes after injection
  Agonistic effect B: Hypothermia: 0
  Agonistic effect C: Catalepsy: 0
  Agonistic effect D: Sedation: 0
Male NMRI mice [4]
  Antagonistic Effect A: Hot-Plate test: 74
  Antagonistic Effect B: Hypothermia: 100
  Antagonistic Effect C: Catalepsy: 100
  Antagonistic Effect D: Sedation: 100
